From US20240263068A1, “AIE Fluorescent Probe Composition, Method and Device for Measuring CMC of Surfactant Solution, and Method and Device for CMC Determination” (Moon House (China) Co., Ltd., priority 2022, published 2024)
Where two headings read alike, the source gives them in different places.

Columns and labels:
[1] = Fluorescence emission peaks excited by 365 nm ultraviolet light; type: physicochemical
Text: That is, the wavelength range of 400-550 nm within which the emission peaks of the fluorescent whitening agent CBS occur is avoided. In this way, the interference of the fluorescent whitening agent with the CMC determination result may be avoided.

[2] = Text: It is generally believed that the type or polarity of a solvent almost has no influence on the fluorescence absorption or emission spectrum of the HPS.
[3] = cited from earlier work

Q: With `O=S(=O)([O-])c1ccccc1C=Cc1ccc(-c2ccc(C=Cc3ccccc3S(=O)(=O)[O-])cc2)cc1.[Na+].[Na+]` [CBS] as the molecule, how does the “Wavelength range of emission peaks” value ([1]; fluorescent whitening agent in detergent) read?
A: 400-550 nm

Q: For `C[S+](C)[O-]` [DMSO], which “Solubility of HPS to Solvent” value [2] is on record?
A: soluble

Q: Which “Solubility of HPS” value ([3]; alcohols such as methanol) does the source give for `c1ccc(C2=C(c3ccccc3)[Si](c3ccccc3)(c3ccccc3)C(c3ccccc3)=C2c2ccccc2)cc1` [HPS, 1,1,2,3,4,5-hexaphenylsilole] here?
A: slightly soluble

Q: What about the “Solubility of HPS” value ([3]; good solvents such as acetonitrile, tetrahydrofuran and chloroform) of the same molecule?
A: highly soluble

Q: What about the “Solubility of HPS” value ([3]; water) of the same molecule?
A: completely insoluble

Q: What about the “Fluorescence emission peak, sharp with high intensity” value ([1]; excited by 365 nm) of the same molecule?
A: 350-370 nm

Q: What about the “Fluorescence emission peak, wide and short with relatively low intensity” value ([1]; excited by 365 nm) of the same molecule?
A: 720-740 nm

Q: What about the “Solubility of HPS powder in water” value [2] of the same molecule?
A: insoluble in water

Q: For `CN1CCCC1=O` [NMP], which “Solubility of HPS to Solvent” value [2] is on record?
A: soluble

Q: With `c1ccc2ncccc2c1` [Quinoline] as the molecule, how does the “Solubility of HPS to Solvent” value [2] read?
A: soluble

Q: Which “Solubility of HPS to Solvent” value [2] does the source give for `CCCCCO` [n-pentanol] here?
A: slightly soluble
